Measurements taken from patent publication US20240190904A1, “Heteroaryl compounds as inhibitors of RIP2 kinase, composition and application thereof” (Accro Bioscience (HK) Limited, priority 2021, published 2024).

Key:
Assay type in all cases: in vivo
[1] = Pharmacokinetic evaluation in mice; conditions: for AUC / Vd / clearance / half-life / Cmax / Tmax: male, mouse, plasma
Protocol: The mice pharmacokinetic characteristics of compounds were tested by standard protocols. The candidate compounds were made into clear solution for single intravenous injection (i.v.) and suspension for oral administration (p.o.). Intravenous vehicle is 5% DMSO+95% Saline while oral vehicle is 0.5% CMCNa. The experiment used 48 male mice and 24 mice for intravenous at a dose of 2 mg/kg. Plasma samples were collected at 0 h (before dosing) and 0.083 h, 0.25 h, 0.5 h, 1 h, 2 h, 4 h, 8 h, 24 h after dosing. Another 24 mice were orally administrated with a dose of 10 mg/kg. Plasma samples were collected at 0 h (before dosing) and 0.25 h, 0.5 h, 1 h, 2 h, 4 h, 6 h, 8 h, 24 h after dosing.
(§1) Blood samples were placed in tubes containing K2-EDTA and stored on ice until centrifuged. The blood samples were centrifuged at 6800 g for 6 minutes at 2-8° C. within 1 h after collected and stored frozen at approximately −80° C.
(§2) The analytical results were confirmed using quality control samples for intra-assay variation. The accuracy of >66.7% of the quality control samples and 50% of all QC samples at each concentration level were between 80-120% of the known value(s).
(§3) Standard set of parameters including Area Under the Curve (AUC(0-t) and AUC(0-∞)), elimination half-live (T1/2), maximum plasma concentration (Cmax), time to reach maximum plasma concentration (Tmax) were calculated using noncompartmental analysis modules in FDA certified pharmacokinetic program Phoenix WinNonlin 7.0 (Pharsight, USA) by the Study Director.

[2] = Pharmacokinetic evaluation in rats; conditions: for AUC / Vd / clearance / half-life / Cmax / Tmax: male, plasma; for AUC / Vd / clearance / half-life / Cmax / Tmax / F: rat
Protocol: The rat pharmacokinetic characteristics of compounds were tested by standard protocols. The candidate compounds were made into clear solution for single intravenous injection (i.v.) and suspension for oral administration (p.o.). Intravenous vehicle is 5% DMSO+95% Saline while oral vehicle is 0.5% CMCNa. The experiment used 9 male rats and 3 rats for intravenous at a dose of 2 mg/kg. Plasma samples were collected at 0 h (before dosing) and 0.083 h, 0.25 h, 0.5 h, 1 h, 2 h, 4 h, 8 h, 24 h after dosing. 3 rats were orally administrated at a dose of 10 mg/kg and 3 rats were orally administrated at a dose of 100 mg/kg. Plasma samples were collected at 0 h (before dosing) and 0.25 h, 0.5 h, 1 h, 2 h, 4 h, 6 h, 8 h, 24 h after dosing.
as §1, §2, §3

[3] = Pharmacokinetic evaluation in beagle dog; conditions: for AUC / Vd / clearance / half-life / Cmax / Tmax: plasma
Protocol: The beagle dog pharmacokinetic characteristics of compounds were tested by standard protocols. The candidate compounds were made into clear solution for single intravenous injection (i.v.) and suspension for oral administration (p.o.). Intravenous vehicle is 5% DMSO+95% Saline while oral vehicle is 0.5% CMCNa. The experiment used 9 dogs. The dogs for intravenous at a dose of 1 mg/kg. Plasma samples were collected at 0 h (before dosing) and 0.083 h, 0.25 h, 0.5 h, 1 h, 2 h, 4 h, 8 h, 24 h after dosing. Three dogs were orally administrated at a dose of 5 mg/kg. Another 3 dogs were orally administrated at a dose of 15 mg/kg or 30 mg/kg. Plasma samples were collected at 0 h (before dosing) and 0.25 h, 0.5 h, 1 h, 2 h, 4 h, 6 h, 8 h, 24 h after dosing.
as §1, §2, §3

MDP induced peritonitis = experiment: MDP (muramyl dipeptide) induced peritonitis, IL-6 by ELISA; conditions: mice, gavage, same dosage as GSK2983559 (10 mg/kg), 3 hours post MDP
Protocol: Mice were divided into four groups Including normal group, DMSO group, positive control group (GSK2983559) and compound group. Mice were dosed by gavage with either GSK2983559 at 10 mg/kg or candidate compounds at 3, 10 mg/kg 30 minutes prior to MDP injection (100 μg/mouse, ip). At 3 hours post MDP administration, the blood sample was collected from ocular vein after anesthesia. IL-6 levels were detected by ELISA.

SMILES | plasma exposure and bioavailability in mice (in words) [1] | AUC ([1]; iv, i.v. 2 mg/kg) | Vd ([1]; iv, i.v. 2 mg/kg) | clearance ([1]; iv, i.v. 2 mg/kg) | half-life ([1]; iv, i.v. 2 mg/kg) | AUC ([1]; po, p.o. 10 mg/kg) | Cmax ([1]; po, p.o. 10 mg/kg) | Tmax ([1]; po, p.o. 10 mg/kg) | F ([1]; p.o. 10 mg/kg) | plasma exposure and bioavailability in rat (in words) [2] | AUC ([2]; iv, i.v. 2 mg/kg) | Vd ([2]; iv, i.v. 2 mg/kg) | clearance ([2]; iv, i.v. 2 mg/kg) | half-life ([2]; iv, i.v. 2 mg/kg) | AUC ([2]; po, p.o. 10 mg/kg) | Cmax ([2]; po, p.o. 10 mg/kg) | Tmax ([2]; po, p.o. 10 mg/kg) | Cmax ([2]; po, p.o. 100 mg/kg) | Tmax ([2]; po, p.o. 100 mg/kg) | F ([2]; p.o. 10 mg/kg) | further results
COc1cc2nccc(Nc3ccc4scnc4c3)c2cc1P(C)(C)=O [A6] | excellent plasma exposure and bioavailability | 2990 ng·h/mL | 1.1 L/kg | 11.1 mL/min/kg | 1.2 h | 19200 ng·h/mL | 9610 ng/mL | 0.5 h | 129% | excellent plasma exposure and bioavailability | 7890 ng·h/mL | 0.6 L/kg | 4.2 mL/min/kg | 1.7 h | 18800 ng·h/mL | 3320 ng/mL | 3.3 h | 68400 ng/mL | 4.7 h | 48% | AUC ([2]; po, p.o. 100 mg/kg): 729000 ng·h/mL; F ([2]; p.o. 100 mg/kg): 185%; plasma exposure and bioavailability in beagle dog (in words) [3]: excellent plasma exposure and bioavailability; F ([3]; p.o. 5 mg/kg): 131%; F ([3]; p.o. 30 mg/kg): 184%; AUC ([3]; iv, i.v. 1 mg/kg): 1640 ng·h/mL; Vd ([3]; iv, i.v. 1 mg/kg): 1.7 L/kg; clearance ([3]; iv, i.v. 1 mg/kg): 9.5 mL/min/kg; half-life ([3]; iv, i.v. 1 mg/kg): 2.1 h; AUC ([3]; po, p.o. 5 mg/kg): 10800 ng·h/mL; Cmax ([3]; po, p.o. 5 mg/kg): 2190 ng/mL; Tmax ([3]; po, p.o. 5 mg/kg): 0.7 h; AUC ([3]; po, p.o. 30 mg/kg): 90800 ng·h/mL; Cmax ([3]; po, p.o. 30 mg/kg): 8630 ng/mL; Tmax ([3]; po, p.o. 30 mg/kg): 2.7 h; inhibition of the level of IL-6 compared with positive control (in words) (MDP induced peritonitis): more effectively than positive control GSK2983559
CP(C)(=O)c1cc2c(Nc3ccc4scnc4c3)ccnc2cc1OC(F)(F)F [A24] | excellent plasma exposure and bioavailability | 22600 ng·h/mL | 0.27 L/kg | 1.5 mL/min/kg | 2.2 h | 89100 ng·h/mL | 16200 ng/mL | 0.8 h | 79% | excellent plasma exposure and bioavailability | 26500 ng·h/mL | 0.19 L/kg | 1.2 mL/min/kg | 18 h | 248000 ng·h/mL | 20400 ng/mL | 1.8 h | 197000 ng/mL | 24 h | 187% | F ([2]; p.o. 100 mg/kg): 244%; plasma exposure and bioavailability in beagle dog (in words) [3]: excellent plasma exposure and bioavailability; F ([3]; p.o. 5 mg/kg): 212%; F ([3]; p.o. 15 mg/kg): 88%; AUC ([3]; iv, i.v. 1 mg/kg): 3800 ng·h/mL; Vd ([3]; iv, i.v. 1 mg/kg): 0.7 L/kg; clearance ([3]; iv, i.v. 1 mg/kg): 4.3 mL/min/kg; half-life ([3]; iv, i.v. 1 mg/kg): 1.9 h; AUC ([3]; po, p.o. 5 mg/kg): 40300 ng·h/mL; Cmax ([3]; po, p.o. 5 mg/kg): 9720 ng/mL; Tmax ([3]; po, p.o. 5 mg/kg): 1.1 h; AUC ([3]; po, p.o. 15 mg/kg): 50400 ng·h/mL; Cmax ([3]; po, p.o. 15 mg/kg): 13300 ng/mL; Tmax ([3]; po, p.o. 15 mg/kg): 3 h; inhibition of the level of IL-6 compared with positive control (in words) (MDP induced peritonitis): more effectively than positive control GSK2983559
